Assay results: article PMC2867956, “Interdomain Interactions Control Ca^2+-Dependent Potentiation in the Cation Channel TRPV4” (PLoS ONE, 2010)
Entries after “also recorded” stand apart in the source; their conditions may differ. Like-named read-outs stand apart in the source and are kept apart here. No end group written: not given here.

Experiments:
[1] = system: CFP-TRPV4-YFP; conditions: HEK293 cells, Ca^2+-containing buffer; 4α-PMA data not shown; concomitant increase in donor fluorescence
[2] = system: TRPV4 mutant KRA; test: Whole-cell patch clamp, TRPV4 mutant KRA; conditions: 4α-PMA 1 µM, nominally Ca^2+-free; -100 and +100 mV, p = 0.012 and 0.007; n = 5
Experimental: (§4) Patch clamp recordings were performed on HEK293 cells in the whole cell configuration. Cells were clamped at a potential of −20 mV, and current-voltage (I–V) relations were obtained from voltage ramps from −100 mV to +100 mV. The standard extracellular solution contained 140 mM NaCl, 5 mM CsCl, 2 mM CaCl2, 1 mM MgCl2, 10 mM glucose, and 10 mM HEPES (pH 7.4 with NaOH). In nominally Ca^2+-free solutions, Ca^2+ was omitted. The standard intracellular solution contained 110 mM cesium methanesulfonate, 25 mM CsCl, 2 mM MgCl2, 0.362 mM CaCl2, 1 mM EGTA, and 30 mM HEPES (pH 7.2 with CsOH) with a calculated [Ca^2+] of 100 nM.
(§5) Patch clamp recordings were performed on HEK293 cells in the whole cell configuration using an EPC10 amplifier and Pulse software (HEKA, Lamprecht, Germany). […] Cells were clamped at a potential of –20 mV, and current-voltage (I-V) relations were obtained from voltage ramps from –100 mV to +100 mV with a duration of 400 ms applied every 4 seconds. Ramp data were acquired with a sampling rate of 20 kHz after filtering at 4 kHz. […] The standard intracellular solution contained 110 mM cesium methanesulfonate, 25 mM CsCl, 2 mM MgCl2, 0.362 mM CaCl2, 1 mM EGTA, and 30 mM HEPES (pH 7.2 with CsOH) with a calculated [Ca^2+] of 100 nM (MaxChelator, Chris Patton, Stanford, USA). […]

[3] = system: wt TRPV4; test: Whole-cell patch clamp, wild type TRPV4; type: cell-based, human
Text: (§1) (See Methods S1 for details).

[4] = system: TRPV4 mutant WIA; test: Whole-cell patch clamp, TRPV4 mutant WIA; conditions: 4α-PMA 1 µM, nominally Ca^2+-free; -100 and +100 mV, p = 0.014 and 0.023; n = 8
Experimental: as §4, §5

[5] = molecular target: CaM (UniProt P0DP23); test: Fluorescence polarization, CaM binding to carboxyfluorescein-labeled TRPV4 peptides; conditions: 50 mM Tris pH 7.5, 100 mM KCl, 0.1% BSA, triplicate
Experimental: (§2) Protein interaction experiments were performed in buffers containing 50 mM Tris, pH 7.5, 100 mM KCl, 0.1% BSA and calcium at the indicated concentrations. Calcium concentrations below 50 µM were buffered with HEDTA, EGTA or EDTA at a buffer concentration of 10 mM. CaM concentrations were 10 µM or as indicated; the tracer peptide concentration was 100 nM. Fluorescence anisotropy was measured in a 384-well black multititer plate (Fluotrac 200, Greiner) using a Fusion alpha FP instrument (PerkinElmer) at 1 s reading time per well. Fluorescence polarization (FP) was calculated according to: [drawing 1] with Ipar and Iperp as the fluorescence emission intensities in planes parallel and perpendicular to the excitation plane. FP signals are given as mean±SEM of triplicate measurements in milli-P (mP) units.
(0.11 MB TIF) Click here for additional data file.

[6] = system: TRPV4; test: FRET acceptor bleaching, full-length TRPV4 N and C termini in HEK293 cells; type: cell-based, human; conditions: extrapolated donor increase at full acceptor photobleaching; unstimulated HEK293; n = 7 (CFP-TRPV4-YFP), 20 and 13 as printed 'respectively'; p<0.0001 versus control
Text: as §1

[7] = system: TRPV4 C2 fragment; test: AlphaScreen interdomain interaction with C2; type: binding, human
Text: First, we did a complementation experiment to test whether a CaM molecule that binds to the C2 fragment of TRPV4 through its C-lobe can form an additional interaction with another CaM binding domain thus forming a ternary complex. […] We used an AlphaScreen-based proximity assay (Fig. 2, Methods S1) in which the acceptor beads were coated with the C-terminal fragment C2-Flag, and the donor beads either with the N-terminal CaM binding peptide P2-biotin, or, as a negative control, with C2-biotin. The interaction between the proteins was measured in the presence of increasing CaM concentrations in 100 µM Ca^2+ or 1 mM EGTA (Fig. 3A).
In an AlphaScreen interaction experiment, donor and acceptor beads were incubated with 10 nM C2-biotin and N2-Flag at concentrations ranging from 30 pM to 1.5 µM, respectively (Fig. 3C).
(§3) Proteins were expressed in E. coli, affinity purified and biotinylated if applicable (for details see Methods S1). For protein interaction measurements, a proximity assay system based on the AlphaScreen technology (PerkinElmer) was used (see Methods S1). Briefly, streptavidin-coated AlphaScreen donor and anti-Flag acceptor beads at a final concentration of 16.7 µg/ml were incubated in a 384-well plate format (OptiPlate-384, PerkinElmer) with C2-GST-biotin or P2-biotin and the respective Flag-tagged interaction protein at concentrations of 10 nM, if not otherwise indicated. Assay buffer conditions were 50 mM Tris, pH 7.4, 100 mM KCl, and 0.1% BSA. After incubation for 90 min at room temperature, the AlphaScreen output signal was recorded in a Fusion alpha FP instrument (PerkinElmer) at 2 s reading time per well. AlphaScreen signals are given as mean±SEM in counts per second (cps) units.
The expression plasmids containing the cDNA for CaM or TRPV4 fragments in the pGEX-2TK vector (Amersham) or a modified derivative that contains an in-frame Flag epitope 5’ to the multiple cloning site were transformed into the BL21(DE3) Escherichia coli host, and protein expression was induced by 200 mg/ml IPTG at an OD600 of 0.6. […] The GST-Flag fusion proteins were eluted with 50 mM Tris, pH 8.5, 100 mM KCl, and 10 mM glutathione. […] The purity of all proteins was confirmed by SDS-polyacrylamide gel electrophoresis and Coomassie staining, and the protein concentration determined by the method according to Bradford using an albumin concentration standard. […]
To establish an improved interaction assay, that allows the quantification of protein interactions on a medium to high throughput scale, a commercially available proximity assay system based on the AlphaScreen (Amplified Luminescent Proximity Homogenous Assay) technology (PerkinElmer) was modified. […]

[8] = system: TRPV4 C terminus peptide library; test: Peptide library overlay, TRPV4 C terminus; type: binding, human; conditions: 20-mer peptides on filter, 100 nM biotinylated protein
Text: (0.31 MBTIF) Click here for additional data file.

[9] = molecular target: P5 peptide (TRPV4 C-terminal CaM binding site); test: Fluorescence polarization, binding of CaM and isolated CaM lobes to labeled P5; design: species or system human; conditions: binding to fluorophore-labeled P5 at 100 µM Ca^2+; tracer 100 nM; pH 7.5
Experimental: We analyzed the properties of the complex between CaM and C-terminal fragments of the human TRPV4 ortholog, and investigated the structural determinants within the CaM molecule that are involved in binding.
as §2, with “Tracer peptides were synthesized and coupled to carboxyfluorescein (Dr. Sven Rothemund, Core unit peptide technologies, IZKF, Leipzig). Protein” for “Protein”

[10] = system: TRPV4 C2 fragment; test: AlphaScreen-based CaM interaction assay with C2; type: binding, human
Experimental: as §3
The expression plasmids containing the cDNA for CaM or TRPV4 fragments in the pGEX-2TK vector (Amersham) or a modified derivative that contains an in-frame Flag epitope 5’ to the multiple cloning site were transformed into the BL21(DE3) Escherichia coli host, and protein expression was induced by 200 mg/ml IPTG at an OD600 of 0.6. […] The GST-Flag fusion proteins were eluted with 50 mM Tris, pH 8.5, 100 mM KCl, and 10 mM glutathione. The GST-fusion proteins intended for subsequent biotinylation were subjected to an additional wash step with 50 mM HEPES, pH 7.4, 100 mM KCl and eluted with 50 mM HEPES, pH 8.5, 100 mM KCl, and 10 mM glutathione. The purity of all proteins was confirmed by SDS-polyacrylamide gel electrophoresis and Coomassie staining, and the protein concentration determined by the method according to Bradford using an albumin concentration standard. Biotinylation was performed using a 10-fold molar excess of biotinamidocaproate N-hydroxysuccinimide ester (Sigma). After incubation at 4 °C for 12 h, the reaction was stopped by addition of a 10-fold molar excess of NH4Cl and unbound biotin ester removed by extensive dialysis against 50 mM Tris, pH 7.4, 100 mM KCl.
To establish an improved interaction assay, that allows the quantification of protein interactions on a medium to high throughput scale, a commercially available proximity assay system based on the AlphaScreen (Amplified Luminescent Proximity Homogenous Assay) technology (PerkinElmer) was modified. The assay principle had been originally developed as an enhanced immunoassay and initially termed luminescent oxygen channeling immunoassay (LOCI [1]). […] The resulting emission at a wavelength of 370 nm is further transformed by fluorophores within the bead into a final emission between 520 nm and 620 nm that can be detected by a photomultiplier. […]

[11] = system: TRPV4; test: Whole-cell patch clamp, effect of CaM/CaM mutant overexpression on Ca^2+-dependent TRPV4 current increase; type: cell-based, human
Text: This mutant may bind and displace endogenous CaM, but, owing to the N-terminal mutation, cannot fully substitute for the wild type molecule.
as §1

[12] = labeled peptide 100 nM, CaM 10 µM or as indicated, value is Ca^2+ concentration, read-out: Ca^2+ concentration at half-maximal CaM binding (Ca^2+-dependence, EC50)

CCCCCCCCCCCCCC(=O)O[C@@H]1[C@@H](C)[C@@]2(O)[C@@H](C=C(CO)C[C@@]3(O)C(=O)C(C)=C[C@@H]23)[C@@H]2C(C)(C)[C@]12OC(C)=O [4α-PMA]
change in FRET fluorescence on stimulation [1]: transient decreases in the FRET
current activated by 4α-PMA versus wild type [2]: Significantly larger currents; also recorded: significantly larger than the wild type
current activated by 4α-PMA ([3]; 4α-PMA 1 µM, nominally Ca^2+-free, wild type, n = 9): slow, small increase in currents
activation of TRPV4 ([3]; nominally Ca^2+-free solutions, HEK293 cells): weak and slow
current activated by 4α-PMA versus wild type [4]: Significantly larger currents; also recorded: significantly larger than the wild type

CC(C)C[C@H](NC(=O)[C@H](CCCNC(=N)N)NC(=O)CNC(=O)[C@@H](NC(=O)[C@@H](NC(=O)[C@H](Cc1c[nH]cn1)NC(=O)[C@H](CO)NC(=O)[C@H](Cc1ccccc1)NC(=O)CN)[C@@H](C)O)C(C)C)C(=O)N[C@@H](CCCNC(=N)N)C(=O)N[C@@H](CCCNC(=N)N)C(=O)N[C@@H](CC(=O)O)C(=O)N[C@@H](CCCNC(=N)N)C(=O)N[C@@H](Cc1c[nH]c2ccccc12)C(=O)N[C@@H](CO)C(=O)N[C@@H](CO)C(=O)N[C@H](C(=O)N[C@H](C(=O)N1CCC[C@H]1C(=O)N[C@@H](CCCNC(=N)N)C(=O)N[C@H](C(=O)N[C@H](C(=O)N[C@@H](CCC(=O)O)C(=O)O)C(C)C)C(C)C)C(C)C)C(C)C [P5]
EC50 [5, 12]: 3.2 µM

C-V4-Y: TRPV4 with CFP and YFP fused to the N- and C termini
FRET efficiency [6]: 14.6±1.1

GRPNLRMKFQGAFRKGVPNP [P1]
EC50 [5, 12]: 3.6 µM

N3: N-terminal TRPV4 fragment, residues 114-161, includes P2 (RHHSSDNKRWRKKIIEKQPQSPKAPAPQPPPILKVFNRPILFDIVSRG; UniProt Q9HBA0 114-161, looked up, fragment)
interaction with C2 ([7]; 10 nM C2-biotin, N2-Flag 30 pM to 1.5 µM, N3 data not shown): interdomain interaction could also be shown
overlay binding site, C terminus library [8]: strong interaction was found with a region that corresponds to the CaM binding peptide P5

RSFPVFLRKAFRSGEMVTVGKSSD [P4]
EC50 [5, 12]: 7.3 µM
EC50 ([5]; tracer peptide 100 nM, CaM 0.1 nM to 10 µM, read-out: CaM binding EC50): 5 µM

SSDNKRWRKKIIEKQPQSPK [P2]
interaction with C2-Flag ([7]; 100 µM Ca^2+ or 1 mM EGTA, absence of CaM (C2: absence or presence of CaM)): strong constitutive interaction
Ca^2+-dependence of P2/C2 interaction ([7]; no CaM, Ca^2+ 10 nM to 10 mM): already present at 0 Ca^2+ and essentially Ca^2+-insensitive over a wide range of Ca^2+ concentrations

calmodulin [CaM]
Kd [9]: 0.4 µM
EC50 ([10]; AlphaScreen, C2-biotin with CaM-Flag or mutant, 10 nM each, value is Ca^2+ concentration, 50 mM Tris pH 7.4, 100 mM KCl, 0.1% BSA, 90 min room temperature, n = 3 independent experiments in triplicate, read-out: EC50 Ca^2+ concentration for C2 interaction (half maximal binding)): 8.8 ± 1 µM
AlphaScreen signal of CaM/C2 in EGTA ([10]; CaM-biotin and C2-Flag in 1 mM EGTA): No signal was detected
Hill coefficient (common) ([10]; Ca^2+-dependence of C2 binding, common fit for CaM, CaM12 and CaM34, n = 3): 2.0
binding to TRPV4 ([10]; Ca^2+-free buffers for CaM): neither binds to CaM in Ca^2+-free buffers
current increase upon addition of Ca^2+ on overexpression ([11]; HEK293 cells coexpressing TRPV4, 4α-PMA in Ca^2+-free bath, then 2 mM Ca^2+, +100 and -100 mV, CaM12 p = 0.013 and 0.007 compared to CaM overexpression): slightly increased the TRPV4 response to Ca^2+, but the increase is not statistically significant
effect on spontaneous or 4α-PMA-activated currents ([11]; nominally Ca^2+-free solution, data not shown): had no effect on spontaneous currents, or currents activated by 4α-PMA
